Source: paper PMC6112376, “Comprehensive Analyses and Prioritization of Tox21 10K Chemicals Affecting Mitochondrial Function by in-Depth Mechanistic Studies” (Environmental Health Perspectives, 2018)
Where two headings read alike, the source gives them in different places.

Experiments:
HepG2 cells [1] = test: ROS-Glo hydrogen peroxide (ROS) assay; type: cell-based, human
[2] = test system: p53 (p53-bla HCT-116 cells); test: p53 β-lactamase reporter gene assay; type: cell-based, human; conditions: 16 h incubation, mean±SD of three experiments
[3] = test system: Nrf2/ARE (ARE-bla HepG2 cells); test: ARE β-lactamase reporter gene assay; type: cell-based, human; conditions: Homo sapiens, HepG2; 16 h incubation; mean±SD of three experiments; read-out: ARE (HepG2) EC50
[4] = test system: isolated rat liver mitochondria; test: Oxygen consumption, Clark-type oxygen electrode; type: biochemical
rat primary hepatocytes [5] = test system: rat primary hepatocytes
hNSC = test: MMP assay in human neural stem cells (hNSC); type: cell-based; conditions: Homo sapiens, Neural stem cell, 1 h, read-out: hNSC IC50 (MMP)
[6] = test system: HeLa cells expressing YFP-Parkin; test: Parkin translocation assay; type: cell-based, human
HepG2 cells [7] = test: cells; conditions: Homo sapiens; for Emax: HepG2, read-out: MMP assays efficacy (%) HepG2
[8] = test system: Caenorhabditis elegans strain PE255; test: In vivo C. elegans ATP status assay; conditions: for minimal effective concentration: Caenorhabditis elegans, read-out: LEC LUM: lowest effect concentration for luminescence, a measure of nematode ATP content
rat primary hepatocytes [9] = test: MMP assay in rat primary hepatocytes; conditions: Rattus norvegicus, Hepatocyte
HepG2 cells [10] = conditions: cited from earlier work
HepG2 cells [11] = test: Intracellular ATP content (cell viability) assay; type: cell-based, human; conditions: Homo sapiens, HepG2, 40 h
[12] = test system: Caenorhabditis elegans (Bristol N2); test: C. elegans larval development and growth assay
[13] = HepG2, 1 h, read-out: HepG2 IC50 Galactose (MMP)
[14] = HepG2, 1 h, read-out: HepG2 IC50 Glucose (MMP)
[15] = 1 h, read-out: Rat hepatocytes IC50 (MMP)
[16] = read-out: MMP assays IC50 (µM) Rat Hepatocytes
[17] = read-out: ATP (HepG2, galactose) IC50
[18] = read-out: ATP (HepG2, glucose) IC50

In the case of `N#CC(c1ccc(Cl)cc1)c1c(Cl)cc(-n2ncc(=O)[nH]c2=O)cc1Cl` (centres unmarked) [Diclazuril, reference compound], the “ROS (HepG2) EC50” value (HepG2 cells [1]) is reported as “Inactive”, the EC50 ([2]; Homo sapiens) is reported as 27.9 ± 6.48 µM and the EC50 [3] is reported as 10.9 µM. The “I-ADP, % of control (O2 consumption rate)” value ([4]; 0.16 µM, glutamate/malate driven state 3 respiration, isolated rat liver mitochondria) was 96 (22.7) % of control, the “I-sub, % of control (O2 consumption rate)” value ([4]; 0.16 µM, glutamate/malate driven state 4 respiration, isolated rat liver mitochondria) was 174 (24.7) % of control and the “II-ADP, % of control (O2 consumption rate)” value (“II-ADP, % of control” for short) ([4]; 0.16 µM, succinate-driven state 3 respiration, isolated rat liver mitochondria) was 99 (32.7) % of control. For the same molecule, the “II-sub, % of control (O2 consumption rate)” value (“II-sub, % of control” for short) ([4]; 0.16 µM, succinate-driven state 4 respiration, isolated rat liver mitochondria) was 168 (35.8) % of control, the “I-ADP, % of control (O2 consumption rate)” value ([4]; 0.8 µM, glutamate/malate driven state 3 respiration, isolated rat liver mitochondria) was 95 (41.4) % of control and the “I-sub, % of control (O2 consumption rate)” value ([4]; 0.8 µM, glutamate/malate driven state 4 respiration, isolated rat liver mitochondria) was 290 (38.0) % of control. The “II-ADP, % of control” value ([4]; 0.8 µM, succinate-driven state 3 respiration, isolated rat liver mitochondria) was 88 (59.6) % of control, the “II-sub, % of control” value ([4]; 0.8 µM, succinate-driven state 4 respiration, isolated rat liver mitochondria) was 263 (54.9) % of control and the “I-ADP, % of control (O2 consumption rate)” value ([4]; 4 µM, glutamate/malate driven state 3 respiration, isolated rat liver mitochondria) was 45 (41.9) % of control. For the same molecule, the “I-sub, % of control (O2 consumption rate)” value ([4]; 4 µM, glutamate/malate driven state 4 respiration, isolated rat liver mitochondria) was 115 (22.8) % of control, the “II-ADP, % of control” value ([4]; 4 µM, succinate-driven state 3 respiration, isolated rat liver mitochondria) was 55 (67.2) % of control and the “II-sub, % of control” value ([4]; 4 µM, succinate-driven state 4 respiration, isolated rat liver mitochondria) was 103 (35.2) % of control. For the same molecule, the “I-ADP, % of control (O2 consumption rate)” value ([4]; 20 µM, glutamate/malate driven state 3 respiration, isolated rat liver mitochondria) was 95 (41.4) % of control, the “I-sub, % of control (O2 consumption rate)” value ([4]; 20 µM, glutamate/malate driven state 4 respiration, isolated rat liver mitochondria) was 124 (16.3) % of control and the “II-ADP, % of control” value ([4]; 20 µM, succinate-driven state 3 respiration, isolated rat liver mitochondria) was 101 (68.5) % of control. The “II-sub, % of control” value ([4]; 20 µM, succinate-driven state 4 respiration, isolated rat liver mitochondria) was 127 (26.6) % of control, the “I-ADP, % of control (O2 consumption rate)” value ([4]; 100 µM, glutamate/malate driven state 3 respiration, isolated rat liver mitochondria) was 94 (41.1) % of control and the “I-sub, % of control (O2 consumption rate)” value ([4]; 100 µM, glutamate/malate driven state 4 respiration, isolated rat liver mitochondria) was 115 (15.1) % of control. For the same molecule, the “II-ADP, % of control” value ([4]; 100 µM, succinate-driven state 3 respiration, isolated rat liver mitochondria) was 101 (68.3) % of control, the “II-sub, % of control” value ([4]; 100 µM, succinate-driven state 4 respiration, isolated rat liver mitochondria) was 114 (23.8) % of control and the “MMP assays efficacy (%) Rat Hepatocytes” value (rat primary hepatocytes [5]) was -114±26%. The “Rat hepatocytes (efficacy) (MMP)” value (rat primary hepatocytes [5]) was 11.5±5.18 ( −72.8±2.37 ) %, the IC50 (hNSC) was 20.6 µM and the Parkin recruitment [6] was “Inactive”. The IC50 (HepG2 cells [7]; [13]) was 46.3 µM, the IC50 (HepG2 cells [7]; [14]) was 38.3 µM and the Emax (HepG2 cells [7]) was 99%. The “LEC (lowest effect concentration), ATP assay” value ([8]; 24 h exposure) was < 10 µM, the minimal effective concentration [8] was 5 µM and the IC50 (rat primary hepatocytes [9]; [15]) was 11.5 µM. For the same molecule, the IC50 (rat primary hepatocytes [9]; [16]) was 5.7 ± 1.94 µM, the “MMP assays efficacy (%) qHTS-HepG2” value (HepG2 cells [10]) was -108±7% and the IC50 (HepG2 cells [10]; read-out: MMP assays IC50 (µM) qHTS-HepG2) was 11.2 ± 2.79 µM. The IC50 (HepG2 cells [11]; [17]) was 43.4 µM, the IC50 (HepG2 cells [11]; [18]) was 50.4 µM and the “LEC (lowest effect concentration), larval growth assay” value ([12]; 48 h exposure) was < 10 µM. It also gave a minimal effective concentration ([12]; Caenorhabditis elegans, read-out: LEC EXT: lowest effect concentration for extinction, a measure of nematode size) of 2.5 µM.
In the case of `CO[C@H]1/C=C/O[C@@]2(C)Oc3c(C)c(O)c4c(O)c(c(/C=N/N5CCN(C6CCCC6)CC5)c(O)c4c3C2=O)NC(=O)/C(C)=C\C=C\[C@H](C)[C@H](O)[C@@H](C)[C@@H](O)[C@@H](C)[C@H](OC(C)=O)[C@@H]1C` [Rifapentine, reference compound], the “ROS (HepG2) EC50” value (HepG2 cells [1]) is reported as “Inactive”, the “p53 (HCT-116) EC50” value [2] is reported as “Inactive” and the EC50 [3] is reported as 29.3 ± 7.09 µM. The “Potential Mechanism” value [4] was “Inactive”, the “I-ADP, % of control (O2 consumption rate)” value ([4]; 4 µM) was 88 (48.1) % of control and the “I-sub, % of control (O2 consumption rate)” value ([4]; 4 µM) was 98 (12.8) % of control. The “II-ADP, % of control” value ([4]; 4 µM) was 94 (82.6) % of control, the “II-sub, % of control” value ([4]; 4 µM) was 92 (22.7) % of control and the “I-ADP, % of control (O2 consumption rate)” value ([4]; 20 µM) was 86 (47.1) % of control. The “I-sub, % of control (O2 consumption rate)” value ([4]; 20 µM) was 127 (16.7) % of control, the “II-ADP, % of control” value ([4]; 20 µM) was 85 (75.2) % of control and the “II-sub, % of control” value ([4]; 20 µM) was 101 (24.8) % of control. For the same molecule, the “Rat hepatocytes (efficacy) (MMP)” value (rat primary hepatocytes [5]) was 5.94±1.48 ( −73.4±10.2 ) %, the IC50 (hNSC) was 8.07 µM and the Parkin recruitment [6] was “Inactive”. It also gave an IC50 (HepG2 cells [7]; [13]) of 17.7 µM, an IC50 (HepG2 cells [7]; [14]) of 13.9 µM and an IC50 (HepG2 cells [7]; HepG2, read-out: MMP assays IC50 (µM) HepG2) of 3.88 µM. The Emax (HepG2 cells [7]) was 101%, the “effect on ATP content (in words)” value ([8]; 0.5–100μM) was “statistically significant decreases in ATP content” and the minimal effective concentration [8] was 100 µM. The IC50 (rat primary hepatocytes [9]; [15]) was 5.94 µM, the IC50 (rat primary hepatocytes [9]; [16]) was 0.62 ± 0.55 µM and the “MMP assays efficacy (%) qHTS-HepG2” value (HepG2 cells [10]) was -104±16%. The IC50 (HepG2 cells [10]; read-out: MMP assays IC50 (µM), qHTS-HepG2) was 1.46 ± 0.26 µM, the IC50 (HepG2 cells [11]; [17]) was 36 µM and the IC50 (HepG2 cells [11]; [18]) was 43.4 µM. For the same molecule, the “effect on larval growth (in words)” value ([12]; 0.5–100μM) was “did not affect growth”.
